SMILES strings stand for the structures.

Experimental findings from patent publication US20230159467A1, “NOVEL COMPOUNDS USEFUL IN THE TREATMENT AND/OR PREVENTION OF A DISEASE, DISORDER OR CONDITION ASSOCIATED WITH ANGIOTENSIN II” (Vicore Pharma AB, priority 2020, published 2023) are described below.

Data set [1] has as its system CYP3A. Kind of data set: CYP450 inhibition assay, pooled human liver microsomes, testosterone substrate. Conditions: both, human, pooled human liver microsomes, pH 7.4, probe testosterone, CYP 450 Inhibition CYP3A testosterone, at 10 μM.
Method: The compound was tested at a single concentration (10 μM) with 0.1% DMSO. […] The reaction was initiated by adding a NADPH-generating system. The reaction was allowed for 10 min and stopped by transferring the reaction mixture to acetonitrile/methanol. Samples were mixed and centrifuged. Supernatants were used for HPLC-MS/MS of the respective metabolite. The activity of human cytochrome P450 (CYP) enzymes were determined by following the formation of a metabolite of the probe substrate. The following enzymes were evaluated for inhibition using the listed reference substrates and reference inhibitors:
CYP1A—phenacetin (reference inhibitor furafylline), CYP2B6—bupropion (reference inhibitor clopidogre), CYP2C8-amodiaquine (reference inhibitor montelukast), CYP2C9—diclofenac (reference inhibitor sulfaphenazole), CYP2C19—omeprazole (reference inhibitor oxybutynin), CYP2D6—dextromethorphan (reference inhibitor quinidine), CYP3A—midazolam (reference inhibitor ketoconazol) and CYP3A—testosterone (reference inhibitor ketoconazol). The reference inhibitors were tested in each assay at multiple concentrations to obtain an IC50 value. Peak areas corresponding to the metabolite were recorded. The percent of control activity was calculated by comparing the peak area in the presence of the test compound to the control samples containing the same solvent. Subsequently, the percent inhibition was calculated by subtracting the percent control activity from 100. The IC50 value (concentration causing a half-maximal inhibition of the control value) was determined by non-linear regression analysis of the concentration-response curve using the Hill equation.
The subject of data set [2] is CYP3A. Kind of data set: CYP450 inhibition assay, pooled human liver microsomes, midazolam substrate. Conditions: for CYP 450 Inhibition CYP3A midazolam: at 10 μM, midazolam substrate; for inhibition at 10 min, 10 µM: both, human, pooled human liver microsomes, pH 7.4, probe midazolam. Background: Liver microsomes are a subcellular fraction often used to study metabolism.

Another data set addresses CYP2D6 (Homo sapiens, UniProt P10635). Kind of data set: CYP450 inhibition assay, pooled human liver microsomes, dextromethorphan substrate. Conditions: for CYP 450 Inhibition CYP2D6: at 10 μM; for inhibition at 10 min, 10 µM: both, human, pooled human liver microsomes, pH 7.4, probe dextromethorphan.
Data set [3] in a line: Stability in mouse liver microsomes. The class given is in vitro ADME. As to conditions: half-life. The method, then:
Stability in liver microsomes. Human, mouse and rat liver microsomes were used to assess the metabolic stability for the compounds. Metabolic stability was determined in 0.5 mg/mL human, mouse or rat liver microsomes at a compound concentration of 1 μM in 100 mM potassium phosphate buffer (pH 7.4) in a total incubation volume of 500 μL by Eurofins. The assay matrix was: human liver microsomes: mixed gender and pool of 50, rat liver microsomes: male, Sprague-Dawley, pool of 100 or more and mouse liver microsomes: male,CD-1, pool of 250 or more. Final microsomal protein concentration: 0.1mg/mL. The test concentration was 0.1 μM with 0.01% DMSO, 0.25% acetonitrile and 0.25% methanol by default. […] The reaction was initiated by adding NADPH-generating system and was incubated for 0, 15, 30, 45, and 60 min. The reaction was stopped by transferring the incubation mixture to acetonitrile/methanol. Samples were then mixed and centrifuged. Four reference compounds were tested in each assay. Propranolol and imipramine are relatively stable, whereas verapamil and terfenadine are readily metabolized inhuman liver microsomes. Samples were analyzed by HPLC-MS/MS using selected reaction monitoring. The HPLC system consisted of a binary LC pump with autosampler, a C-18 column, and a gradient. Peak areas corresponding to the test compound were recorded. The compound remaining was calculated by comparing the peak area at each time point to time zero. The half-life was calculated from the slope of the initial linear range of the logarithmic curve of compound remaining (%) vs. time, assuming first order kinetics. In addition, the intrinsic clearance (Clint) was calculated.^19,20

The target of another data set is T1, CYP2B6 (Homo sapiens, UniProt P20813).
T1 sequence (P20813 1-491): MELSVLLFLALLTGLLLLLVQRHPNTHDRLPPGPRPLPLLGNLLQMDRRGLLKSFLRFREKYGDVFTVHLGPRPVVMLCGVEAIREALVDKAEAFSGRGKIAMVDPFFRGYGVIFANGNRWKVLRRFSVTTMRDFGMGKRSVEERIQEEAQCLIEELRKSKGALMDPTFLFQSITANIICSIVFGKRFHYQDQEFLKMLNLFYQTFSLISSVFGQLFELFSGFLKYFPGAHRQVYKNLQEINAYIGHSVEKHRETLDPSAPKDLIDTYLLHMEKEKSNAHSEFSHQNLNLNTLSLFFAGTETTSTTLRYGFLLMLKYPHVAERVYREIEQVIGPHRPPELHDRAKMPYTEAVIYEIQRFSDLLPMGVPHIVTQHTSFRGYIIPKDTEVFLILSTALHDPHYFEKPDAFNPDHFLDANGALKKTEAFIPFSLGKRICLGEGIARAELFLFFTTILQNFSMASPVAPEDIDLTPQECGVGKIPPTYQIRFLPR
Kind of data set: CYP450 inhibition assay, pooled human liver microsomes, bupropion substrate. As to conditions: for CYP 450 Inhibition CYP2B6: at 10 μM; for inhibition at 10 min, 10 µM: both, human, pooled human liver microsomes, pH 7.4, probe bupropion.

A further data set deals with T2, CYP2C8 (Homo sapiens, UniProt P10632).
T2 sequence (P10632 1-490): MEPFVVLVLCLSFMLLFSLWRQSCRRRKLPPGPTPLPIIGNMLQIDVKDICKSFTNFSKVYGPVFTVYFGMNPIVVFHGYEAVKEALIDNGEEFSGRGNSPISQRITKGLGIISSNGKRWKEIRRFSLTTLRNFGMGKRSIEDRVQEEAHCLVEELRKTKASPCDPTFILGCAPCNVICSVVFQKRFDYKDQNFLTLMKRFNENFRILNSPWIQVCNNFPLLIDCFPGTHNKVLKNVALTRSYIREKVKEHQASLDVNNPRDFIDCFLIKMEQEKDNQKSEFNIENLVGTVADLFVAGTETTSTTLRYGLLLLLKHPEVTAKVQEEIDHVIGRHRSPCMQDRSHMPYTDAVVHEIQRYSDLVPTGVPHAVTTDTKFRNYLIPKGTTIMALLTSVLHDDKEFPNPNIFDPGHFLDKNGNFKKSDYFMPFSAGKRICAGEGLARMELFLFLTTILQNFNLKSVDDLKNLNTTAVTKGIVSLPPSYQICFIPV
Kind of data set: CYP450 inhibition assay, pooled human liver microsomes, amodiaquine substrate. Conditions: for CYP 450 Inhibition CYP2C8: at 10 μM; for inhibition at 10 min, 10 µM: both, human, pooled human liver microsomes, pH 7.4, probe amodiaquine.

CYP2D6, sequence (P10635 whole entry): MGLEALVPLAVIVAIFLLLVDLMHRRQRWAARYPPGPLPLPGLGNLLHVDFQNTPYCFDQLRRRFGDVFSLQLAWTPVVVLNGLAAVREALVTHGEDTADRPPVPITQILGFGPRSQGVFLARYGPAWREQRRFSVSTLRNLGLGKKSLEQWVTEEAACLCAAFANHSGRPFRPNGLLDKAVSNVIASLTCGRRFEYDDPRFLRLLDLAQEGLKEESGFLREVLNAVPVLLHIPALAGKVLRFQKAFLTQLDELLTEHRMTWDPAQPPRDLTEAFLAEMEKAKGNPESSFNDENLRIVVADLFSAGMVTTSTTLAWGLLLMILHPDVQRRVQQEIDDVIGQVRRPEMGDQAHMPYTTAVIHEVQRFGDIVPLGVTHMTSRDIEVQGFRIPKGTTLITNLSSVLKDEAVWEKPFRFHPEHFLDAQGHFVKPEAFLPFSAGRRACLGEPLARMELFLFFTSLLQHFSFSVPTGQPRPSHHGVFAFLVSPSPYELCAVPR

As a reminder, the inhibition is the change of the read-out against control, counted positive when it falls. Take `CCCCOC(=O)NS(=O)(=O)c1sc(CC(C)C)nc1-c1ccc(Cn2ccnc2C(C)(C)C)cc1` [Example 4, Butyl ((4-(4-((2-(tert-butyl)-1H-imidazol-1-yl)methyl)phenyl)-2-isobutylthiazol-5-yl)sulfonyl) carbamate]: the inhibition at 10 min, 10 µM in the data set on CYP3A [1] was 7.5%. Also, the “CYP 450 Inhibition CYP3A midazolam” value in the data set with CYP3A [2] is 24%. Besides, the “CYP 450 Inhibition CYP2D6” value on CYP2D6 stood at 12%. For the same compound, the “Stability in liver microsomes MLM” value in data set [3] stood at 7 min. The “CYP 450 Inhibition CYP2B6” value on CYP2B6 came out at 29%. Besides, the “CYP 450 Inhibition CYP2C8” value on CYP2C8 is 70%.
With `COC(=O)NS(=O)(=O)c1sc(CC(C)C)nc1-c1ccc(Cn2ccnc2C(C)(C)C)cc1` [Example 3, Methyl ((4-(4-((2-(tert-butyl)-1H-imidazol-1-yl)methyl)phenyl)-2-isobutylthiazol-5-yl)sulfonyl) carbamate], the inhibition at 10 min, 10 µM in the data set on CYP3A [1] is 2.7%. The “CYP 450 Inhibition CYP3A midazolam” value in the data set on CYP3A [2] is listed as 5.4%. Further, at CYP2D6, the “CYP 450 Inhibition CYP2D6” value was found to be 12%. Further, the “Stability in liver microsomes MLM” value in data set [3] is on record as more than 60 min. The “CYP 450 Inhibition CYP2B6” value on CYP2B6 is on record as 24%. In addition, at CYP2C8, the “CYP 450 Inhibition CYP2C8” value was 26%.
`COC(=O)[N-]S(=O)(=O)c1ccc(CC(C)C)cc1-c1ccc(Cn2ccnc2C(C)(C)O)cc1.[K+]` [Example 8B, Potassium ((4′-((2-(2-hydroxypropan-2-yl)-1H-imidazol-1-yl)methyl)-5-isobutyl-[1,1′-biphenyl]-2-yl)sulfonyl)(methoxycarbonyl)amide]: the inhibition at 10 min, 10 µM turned out to be 10.7% in the data set on CYP3A [1]; 1.3% in the data set with CYP3A [2]; 2.5% at CYP2D6; 28% at CYP2B6; 64% at CYP2C8. In addition, the “Stability in liver microsomes MLM” value in data set [3] is more than 60 min.
Turning to `COC(=O)NS(=O)(=O)c1ccc(CC(C)C)cc1-c1ccc(Cn2ccnc2C(C)(C)C)cc1` [Example 1A, Methyl ((4′-((2-(tert-butyl)-1H-imidazol-1-yl)methyl)-5-isobutyl-[1,1′-biphenyl]-2-yl)sulfonyl)carbamate], the inhibition at 10 min, 10 µM in the data set on CYP3A [1] came out at 14%; in the data set on CYP3A [2], 0%; on CYP2D6, 9%; at CYP2B6 it was 18%; on CYP2C8 it was 67%. For the same compound, the “Stability in liver microsomes MLM” value in data set [3] was more than 60 min.
As to `CCCCOC(=O)[N-]S(=O)(=O)c1sc(CC(C)C)cc1-c1ccc(Cn2ccnc2C(C)(C)C)cc1.[K+]` [Example 11B, Potassium (butoxycarbonyl)((3-(4-((2-(tert-butyl)-1H-imidazol-1-yl)methyl)phenyl)-5-isobutylthiophen-2-yl)sulfonyl)amide], the inhibition at 10 min, 10 µM in the data set on CYP3A [1] was 21%; in the data set with CYP3A [2], -5.1%; against CYP2D6, 14%; against CYP2B6, 51%; at CYP2C8, 81%. Moreover, the “Stability in liver microsomes MLM” value in data set [3] is given as 10 min.
